How the values were obtained:
[1] = for speed of sound / viscosity / mass density: 101.33 kPa, Liquid; for speed of sound: VIBRATING TUBE DENSIMETER; for surface tension liquid-gas: Ring tensiometer; for viscosity: Capillary tube (Ostwald / Ubbelohde) method; for mass density: Vibrating tube method
[2] = refractive index (Na D-line) (dimensionless); details: 101.33 kPa, Liquid, Standard Abbe refractometry

CCCCCCn1cc[n+](C)c1.F[P-](F)(F)(F)(F)F [1-hexyl-3-methylimidazolium hexafluorophosphate]
[1]
Details | speed of sound [m/s] | surface tension liquid-gas [mN/m] | viscosity [mPa·s]
278.15 K | 1490.7 | – | –
283.15 K | 1470.8 | – | –
288.15 K | 1453.6 | – | –
293.15 K | 1438.3 | 37.5 | 676.82
298.15 K | 1424.2 | 37.1 | 475.66
303.15 K | 1411 | 36.8 | 342.52
308.15 K | 1398.5 | 36.5 | 252.69
313.15 K | 1386.4 | 36.1 | 187.36
318.15 K | 1374.6 | – | 143.58
323.15 K | 1363 | – | 111.9
328.15 K | 1351.7 | – | –
333.15 K | 1340.3 | – | –
338.15 K | 1329.3 | – | –
343.15 K | 1318.4 | – | –

CCCCCCCC[n+]1ccn(C)c1.F[P-](F)(F)(F)(F)F [1-octyl-3-methylimidazolium hexafluorophosphate]
Details | mass density, [1] [kg/m3] | refractive index, [2] | speed of sound, [1] [m/s] | surface tension liquid-gas, [1] [mN/m] | viscosity, [1] [mPa·s]
278.15 K | 1251.83 | – | 1481.6 | – | –
283.15 K | 1247.65 | 1.42716 | 1460 | – | –
288.15 K | 1243.43 | 1.42578 | 1440.8 | – | –
293.15 K | 1239.57 | 1.4244 | 1423.7 | 36.5 | 999.08
298.15 K | 1235.72 | 1.42302 | 1407.8 | 36.2 | 690.6
303.15 K | 1231.88 | 1.42165 | 1393 | 35.9 | 489.02
308.15 K | 1228.04 | 1.42028 | 1378.9 | 35.6 | 355.31
313.15 K | 1224.21 | 1.41887 | 1365.8 | 35.2 | 263.23
318.15 K | 1220.37 | 1.41749 | 1353.2 | – | 196.23
323.15 K | 1216.62 | 1.4161 | 1341 | – | 150.57
328.15 K | 1212.92 | 1.41471 | 1329.1 | – | –
333.15 K | 1209.21 | 1.41334 | 1317.5 | – | –
338.15 K | 1205.51 | 1.41195 | 1305.8 | – | –
343.15 K | 1201.82 | 1.41056 | 1294.6 | – | –

CCCCn1cc[n+](C)c1.F[P-](F)(F)(F)(F)F [1-butyl-3-methylimidazolium hexafluorophosphate]
Details | mass density, [1] [kg/m3] | refractive index, [2] | speed of sound, [1] [m/s] | surface tension liquid-gas, [1] [mN/m] | viscosity, [1] [mPa·s]
278.15 K | 1384.36 | – | 1492.5 | – | –
283.15 K | 1380.1 | 1.41332 | 1480.8 | – | –
288.15 K | 1375.83 | 1.41198 | 1468.2 | 43.7 | –
293.15 K | 1371.56 | 1.41069 | 1455.3 | 43.2 | 340.49
298.15 K | 1367.3 | 1.40937 | 1442.8 | 42.9 | 247.06
303.15 K | 1363.03 | 1.40808 | 1430.6 | 42.6 | 184.23
308.15 K | 1358.76 | 1.40674 | 1419 | 42.2 | 140.57
313.15 K | 1354.53 | 1.40543 | 1406.4 | 41.8 | 108.9
318.15 K | 1350.32 | 1.40411 | 1394.9 | – | 85.9
323.15 K | 1346.12 | 1.40282 | 1383.5 | – | 68.79
328.15 K | 1341.97 | 1.40151 | 1372.2 | – | –
333.15 K | 1337.83 | 1.40024 | 1360.9 | – | –
338.15 K | 1333.7 | 1.39896 | 1349.2 | – | –
343.15 K | 1329.61 | 1.39771 | 1337.2 | – | –
